The values that follow come from EP3067369A1, “Methods and compositions for the treatment of anti-angiogenic resistant cancer” (Institut d'Investigació Biomèdica de Bellvitge (IDIBELL), priority 2015, dated 2016).

Structures are written as SMILES. Entries after “also recorded” stand apart in the source; their conditions may differ.

Data set [1] has as its system REN 50 cells. Put plainly: Effectiveness experiment: REN 50 renal tumors implanted in mice (tumor volume/weight, CD31 vascular density, necrosis). It is filed as in vivo. The following applies: for vascular density / tumor vasculature (anti-CD31 immunohistochemistry) / tumor weight and volume / percentage of necrosis: REN 50 tumors; for vascular density / tumor vasculature (anti-CD31 immunohistochemistry) / percentage of necrosis: compared to the control group; for vascular density / tumor vasculature (anti-CD31 immunohistochemistry): Figures 5 and 6; for tumor weight and volume: continuous administration; for percentage of necrosis: hematoxylin-eosin sections, Figure 7. The procedure:
An effectiveness experiment was performed according to the following scheme: tumors of about 2 mm^3 size were implanted in mice, and the tumors were allowed to develop for 20 days (to a size of about 750 mm^3). The time from tumor development to death was measured as the anti-angiogenic response.
7 mice were implanted per treatment group. REN 50 cells were implanted. Treatment started when mice developed tumors with a volume tumor of about 750 mm^3, and lasted for three weeks. Table 2. Treatment groups
The inventors then analyzed whether these inhibitors produced any effect at the level of tumor vasculature by conducting in immunohistochemistry, using an anti-CD31 antibody as a marker of endothelial cells.
Hematoxylin-eosin stained paraffin sections of tumors obtained from mice from the different treatment groups were analyzed in order to evaluate the degree of necrosis.

The subject of data set [2] is primary tumor REN 28. Put plainly: Long-term survival / anti-angiogenic resistance experiment: tumors from primary tumor REN 28 in mice. It is filed as in vivo. The text has this:
The inventors assessed next the effect of therapy with PD-ECGF inhibitors in a long term survival experiment, wherein the tumors are able to regrow (resistance) and wherein PD-ECGF overexpression has been observed.
A survival experiment was followed, wherein the drugs previously tested on the primary tumor from REN 28 were continuously administered. This tumor line was selected because the inventors this tumor is able to generate an anti-angiogenic resistance phenotype with after treatment with bevacizumab and DC101.
Again, tumors of about 2 mm^3 size were implanted in mice, and the tumors were allowed to develop for 30 days (with a size of about 1,000 mm^3). The time from tumor development to death was measured as the anti-angiogenic resistance.
Tumors were measured and weighted; samples were collected for further processing. Treatments were stopped or changed on day 15. Table 3. Treatment groups.
Several treatment strategies were followed in anti-VEGFR2 resistant tumors: • 1. stop the anti-VEGFR2 (DC101) treatment just when the tumors begin to becomes resistant, and verify if said tumors are able to regrow with or without vasculature (represented as "DC101→R→OFF" treatment group), • 2. change the VEGFR2 inhibition therapy by the inhibition of another pathway (PD-ECGF) (represented as "DC101→R→AEAC" treatment group), • 3. combine the VEGFR2-inhibition therapy (DC101) and the PD-ECGF-inhibition therapy ([…]) (represented as "DC101→R→DC101 1 + AEAC" treatment group).

Setting [3] is: AEAC added to DC101 after development of resistance (DC101→R→DC101 + AEAC).
Setting [4] is: therapy changed from DC101 to AEAC at onset of resistance (DC101→R→AEAC).

`NCCNc1[nH]c(=O)[nH]c(=O)c1Cl` [AEAC, 6-(2-aminoethyl)amino-5-chlorouracil]: in data set [1], the “vascular density / tumor vasculature (anti-CD31 immunohistochemistry)” value is given as “decreased tumor vasculature”; the “tumor weight and volume” value is “decreased tumor weight and volume”; the percentage of necrosis entry is listed as “increased tumor necrosis”. In addition, the “number of vessels (labeled with anti-CD31 antibody)” value in data set [1] (after 21 days of treatment, Figure 6) is reported as “decrease in the number of vessels”. In data set [2] (setting [3]), the “number of vessels / vascular density” value is “decreased vascular density”, the toxicity to animals result is “toxic” and the “tumor size / tumor volume” value is reported as “small tumoral volume; also recorded: sustained effect on tumor volume reduction”. The “average and total survival” value in data set [2] (REN 28, continuous treatment, compared to control mice, Figure 8) was “increased average and total survival”. For the same compound, in data set [2] (setting [4]), the survival entry is on record as “increased survival” and the “time of tumor progression” value is recorded as “delayed the time of tumor progression”.
For `Oc1ncnc2c1ncn2[C@@H]1O[C@H](COC(c2ccccc2)(c2ccccc2)c2ccccc2)[C@@H](O)[C@H]1O` [KIN 59, 5'-O-trityl-inosine], in data set [1], the “vascular density / tumor vasculature (anti-CD31 immunohistochemistry)” value is on record as “decreased tumor vasculature”; the “tumor weight and volume” value is “decreased tumor weight and volume”; the percentage of necrosis result was “increased tumor necrosis”. Moreover, the “number of vessels (labeled with anti-CD31 antibody)” value in data set [1] (after 15 days of treatment, Figure 5) is reported as “decrease in the number of vessels”.
